# Data reported in patent US20110064775A1, “METALLO-ORGANIC SYSTEM FOR THE ENCAPSULATION AND RELEASE OF COMPOUNDS OF INTEREST, METHOD FOR OBTAINING SAME AND USES THEREOF” (CONSEJO SUPERIOR DE INVESTIGACIONES CIENTIFÍCAS, priority 2008, published 2011).
# “Also recorded” adds a separate entry of the source.
# Assay: fluorescence emission spectrum of encapsulated versus free substance (integrity after encapsulation)
# Assay type: physicochemical
# Details: encapsulated vs free state
# From the text: Both images have been obtained using an AxioObserver Z1M (Zeiss Microscope) optical microscope.
# The scanning and fluorescence images have been taken using a Hitachi S-570 scanning microscope and an AxioObserver Z1M (Zeiss 25 Microscope) optical microscope, respectively. The fluorescence intensities have been obtained using an Applied Photophysics fluorometer with a Quantel pulsed laser.
smiles,measurement,value
COc1cccc2c1C(=O)c1c(O)c3c(c(O)c1C2=O)C[C@@](O)(C(=O)CO)C[C@@H]3O[C@H]1C[C@H](N)[C@H](O)[C@H](C)O1 [doxorubicin],modification or degradation during the encapsulation process,has not been modified; also recorded: has not been modified or degraded
